Data: patent publication US7820642B2, “Nandrolone 17β-carbonates” (The United States of America as represented by the …, priority 2005, dated 2010)
“Also recorded” adds a separate entry of the source.

What was measured:
Format in all cases: in vivo, rat
[1] = test system: castrate Sprague-Dawley male rats; assay: Androgenic activity, Hershberger test (ventral prostate weight); conditions: for Biological activity Potency Ratio: oral in 10% ethanol/sesame oil, methyltestosterone standard = 1.00, FIG. 11
Method: The androgenic activity was tested as follows (see, Hershberger et al., Proc. Soc. Exptl. Biol. Med., 83: 175-180 (1953)). Immature (approximately 21 day old) male rats of the Sprague-Dawley strain were orchidectomized under METOFANE® anesthesia and randomly assigned to groups of ten animals for each dose level of test material and vehicle controls. Animals were maintained under standard conditions of housing and had free access to food and water. Illumination was controlled for 14-hour periods of light and 10 hours of darkness. Test compounds were dissolved in 10% ethanol/sesame oil and administered by gavage (oral) or subcutaneous injection daily for seven consecutive days starting on the day of surgery. Animals were sacrificed 24 hours after the last dose and the ventral prostate and seminal vesicles excised, cleaned of fat and connective tissue, blotted on moist filter paper and weighed to the nearest 0.1 mg. Ventral prostate weight was used as the endpoint because ventral prostate is the more sensitive organ to androgenic stimulation.
Statistical analysis was performed by conventional methods using a PROPHET data management system operating on SUN Microsystems OS 4.1.1 (see e.g., Bliss, Cl (1952) The Statistics of Bioassay, New York, Academic Press; Hollister, C (1988), Nucleic Acids Research, 16:1873-1875.
Each data point represents the mean (n=10) and standard error of the mean (SEM) prostate weight for each dose level. The potency ratio and 95% confidence index are set forth below.

[2] = test system: castrate Sprague-Dawley male rats; assay: Duration of androgenic activity after a single subcutaneous injection (ventral prostate weight, AUC); conditions: for AUC of ventral prostate weight (duration of androgenic activity), standards: historical data, 1.2 mg single subcutaneous injection, testosterone undecanoate in aqueous suspension, testosterone enanthate in sesame oil; for Duration of androgenic activity (in words): single subcutaneous injection in aqueous vehicle; for AUC of ventral prostate weight (duration of androgenic activity): 14 weeks
Method: Duration of androgenic activity was determined as follows. Immature (22 days of age) male rats of the Sprague-Dawley CD strain were orchidectomized under METOFANE anesthesia and randomly assigned to groups of forty or more animals. Animals were maintained under standard conditions of housing and had free access to food and water. Illumination was controlled for 14-hour periods of light and 10 hours of darkness. Animals received a single subcutaneous injection of 0.6 mg of test material in aqueous suspending vehicle (ASV) and/or an oily vehicle (10% ethanol/sesame oil, sesame oil containing 5 mg/ml chlorobutanol as a preservative or ethyl oleate) on the day of surgery. Controls received vehicle alone. Testosterone enanthate in sesame oil was used as a standard. In cases where the test material was not solid at room temperature, i.e., a wax or oil, 10% ethanol/sesame oil or ethyl oleate was used as a vehicle. Five rats from each group were sacrificed at weekly or biweekly intervals and seminal vesicle and ventral prostate glands were excised, cleaned of adherent fat and connective tissue and weighed to the nearest 0.1 mg. Ventral prostate weight was used as the endpoint because it is the more sensitive organ to androgenic stimulation. Area under the curve (AUC) was calculated by the trapezoidal rule.
Each data point represents the mean (n=5) and standard error of the mean (SEM) prostate weight for each time period. […] In FIG. 8, the data for 1.2 mg dose groups are shown together with historical data for testosterone undecanoate in aqueous suspension and testosterone enanthate in sesame oil as standards. Both testosterone undecanoate and testosterone enanthate are commercially available.

[3] = Serum levels of dimethandrolone (CDB-1321) and immunoreactive metabolites by radioimmunoassay; design: AUC of serum concentration of dimethandrolone and immunoreactive metabolites: unit not given here; conditions: for AUC of serum concentration of dimethandrolone and immunoreactive metabolites: n=5, FIG. 9
Method: Serum levels of testosterone and CDB-1321 were determined as follows. Rats from a duration of androgenic activity study were exsanguinated at autopsy, serum prepared by allowing blood to clot at room temperature and the sample frozen for subsequent radioimmunoassay. A radioimmunoassay for the free alcohol, 7a, 11β-dimethyl-19-nortestosterone, was developed using antisera generated in rabbits against the 3-carboxymethyloxime-BSA conjugate and employing the corresponding histamine conjugate for iodination as tracer.

[4] = test system: luteinizing hormone (rLH); assay: Serum rLH in castrate male rats
Method: FIG. 14 depicts the serum levels of rLH as a function of time for groups 2 and 4 of the animals. Serum rLH were measured in the blood from castrate male rats following fourteen daily 12 mg/kg oral doses of CDB-4719A (dimethandrolone 17β-decylcarbonate, filled circles, group 2) or CDB-4521C (dimethandrolone 17β-undecanoate, open triangles, group 4) in 10% ethanol/sesame oil on days 0-13. Samples from weeks −1 to 6 or from weeks 7 to 9 and repeats were assayed as described in the protocols MEL-480AD using [^125I]-rLH or MEL-480AE, AG using [^125I]-rLH. The limit of detection shown as dotted line, or EC90, was the mean of 0.13, 0.14, or 0.16 in the first assay and 0.17, 0.22, or 0.21 ng/ml in the second series of assays based on 200 μl of serum per tube.
FIG. 15 depicts the serum levels of rLH as a function of time for groups 1 and 3 of the animals. Serum rLH were measured in the blood from castrate male rats following a single 12 mg/kg subcutaneous injection of CDB-4719A (dimethandrolone 17β-decylcarbonate, filled circles, group 1) or CDB-4521C (dimethandrolone 17β-undecanoate, open triangles, group 3) in an aqueous suspending vehicle on day 0. Samples from weeks −1 to 6 or from weeks 7 to 22 and repeats were assayed as described in the protocols MEL-480AD using [^125I]-rLH or MEL-480AE, AG, AH using [^125I]-rLH. The limit of detection shown as dotted line, or EC90, was the mean of 0.13, 0.14, or 0.16 in the first assay and 0.17, 0.22, or 0.21 ng/ml in the second series of assays based on 200 μl of serum per tube.
Carbonates of the invention, in embodiments, can be used to suppress luteinizing hormone in a mammal for extended periods of time. […] CDB-4719A (dimethandrolone 17β-decylcarbonate) was administered to castrate male rats, daily at 12 mg/kg oral doses, and CDB-4521C (dimethandrolone 17β-undecanoate) was administered in 10% ethanol/sesame oil, on days 0-13. […] This observation could have advantageous clinical implications, for example, in obtaining sustained suppression of the luteinizing hormone or hormone replacement therapy. In addition, this could have an advantage by providing a facile treatment using oral compositions such as tablets or capsules of the carbonates of the invention in suppressing hormone levels. Such treatment can be advantageous relative to a treatment involving parenteral (e.g., subcutaneous) administration of a drug such as the ester drug. Patient compliance is better with oral formulations than injections.
FIG. 15 provides a comparison between CDB-4719A (dimethandrolone 17β-decylcarbonate) and CDB-4521C (dimethandrolone 17β-undecanoate). A single dose (12 mg/kg) of the compound was administered to castrate male rats by subcutaneous injection in an aqueous suspending vehicle on day 0. The serum rLH concentration was monitored over a 22-week period and beyond.

[5] = fourteen daily 12 mg/kg oral doses in 10% ethanol/sesame oil, days 0-13, FIG. 14
[6] = single subcutaneous injection of 0.6 mg in aqueous suspending vehicle
[7] = single subcutaneous injection of 1.2 mg in aqueous suspending vehicle
[8] = oral, daily for 7 days in 10% ethanol/sesame oil, CDB 110 (methyltestosterone) = 1.000 assigned, FIG. 5, ranges did not pass all significance tests
[9] = subcutaneous injection, daily for 7 days, CBD-111 (testosterone) = 1.000 assigned, FIG. 6, footnote 2 values did not pass all significance tests

## C[C@]12CCC(=O)C=C1CC[C@@H]1[C@@H]2CC[C@@]2(C)[C@H]1CC[C@]2(C)O [CDB-110B, methyltestosterone, reference compound]
[1]
  Biological activity Potency Ratio: 1.00 (assigned)

## CCCCCCC(=O)O[C@H]1CC[C@H]2[C@@H]3CCC4=CC(=O)CC[C@]4(C)[C@H]3CC[C@]12C [CDB-112, testosterone enanthate, reference compound]
[2]
  AUC of ventral prostate weight (duration of androgenic activity), standards: 760 mg·week

## C[C@@H]1CC2=CC(=O)CC[C@@H]2[C@@H]2[C@@H]1[C@@H]1CC[C@H](O)[C@@]1(C)C[C@@H]2C [CDB-1321, 7a, 11β-dimethyl-19-nortestosterone, reference compound]
[3]; first 3 weeks, limit of detection 63 pg/ml
  Serum levels of the free alcohol after giving the free alcohol itself: barely above the limit of detection

## CCCCCCCCCCC(=O)O[C@H]1CC[C@H]2[C@@H]3CCC4=CC(=O)CC[C@]4(C)[C@H]3CC[C@]12C [CDB-3122E, testosterone undecanoate, reference compound]
[2]
  AUC of ventral prostate weight (duration of androgenic activity), standards: 494 mg·week

## CCCCCCCCCCC(=O)O[C@H]1CC[C@H]2[C@H]3[C@H]([C@@H](C)C[C@]12C)[C@H]1CCC(=O)C=C1C[C@H]3C [CDB-4521C, dimethandrolone 17β-undecanoate, reference compound]
[4]; [5]
  Serum rLH after administration was discontinued: bounced back and increased beyond the pretreatment level
  Serum rLH during administration: remained suppressed
[4]; single 12 mg/kg subcutaneous injection in aqueous suspending vehicle on day 0, FIG. 15
  Serum rLH up to 16 weeks post administration: remains suppressed
[4]; single 12 mg/kg subcutaneous injection in aqueous suspending vehicle on day 0, monitored over 22 weeks, FIG. 15
  Serum rLH after 16 weeks: rose after 16 weeks

## COC(=O)O[C@H]1CC[C@H]2[C@H]3[C@H]([C@@H](C)C[C@]12C)[C@H]1CCC(=O)C=C1C[C@H]3C [CDB-4718, 17β-Methoxycarbonyloxy-7α,11β-dimethylestr-4-en-3-one]
[3]; [6]
  AUC of serum concentration of dimethandrolone and immunoreactive metabolites: 2848
[3]; [7]
  AUC of serum concentration of dimethandrolone and immunoreactive metabolites: 3336
[1]; [8]
  Androgenic activity Potency Ratio: about two and one-half times
[1]; oral, daily for 7 days in 10% ethanol/sesame oil, CDB 110 (methyltestosterone) = 1.000 assigned, FIG. 5, ranges did not pass all significance tests, listed as 4718
  Androgenic activity Potency Ratio: 2.609^1
[1]; [9]
  Androgenic activity Potency Ratio: 10.4-47.5
[1]; subcutaneous injection, daily for 7 days, CBD-111 (testosterone) = 1.000 assigned, FIG. 6, footnote 2 values did not pass all significance tests, listed as 4718
  Androgenic activity Potency Ratio: 10.4-47.5^1,2
[2]
  Duration of androgenic activity (in words): short duration of action
[2]; [6]
  AUC of ventral prostate weight (duration of androgenic activity): 581 mg·week
[2]; [7]
  AUC of ventral prostate weight (duration of androgenic activity): 789 mg·week

## CCCCCCCCCCCCOC(=O)O[C@H]1CC[C@H]2[C@H]3[C@H]([C@@H](C)C[C@]12C)[C@H]1CCC(=O)C=C1C[C@H]3C [CDB-4730, 17β-Dodecyloxycarbonyloxy-7α,11β-dimethylestr-4-en-3-one]
[3]; single subcutaneous dose of 0.6 or 1.2 mg per rat in aqueous suspending vehicle, FIG. 16
  Serum levels of dimethandrolone and immunoreactive metabolites over time: decreased with time as expected
[1]; [8]
  Androgenic activity Potency Ratio: 0.97-3.82
[1]; oral, daily for 7 days in 10% ethanol/sesame oil, CDB 110 (methyltestosterone) = 1.000 assigned, FIG. 5, ranges did not pass all significance tests, listed as 4730
  Androgenic activity Potency Ratio: 0.97-3.82^1,2
[1]; subcutaneous injection
  Potency as percent of the subcutaneous standard, testosterone: 5%
[1]; [9]
  Androgenic activity Potency Ratio: 0.05^1,2
[2]
  Duration of androgenic activity (in words): far more potent; also recorded: exhibited similar long-acting activity

## CCCCCCOC(=O)O[C@H]1CC[C@H]2[C@H]3[C@H]([C@@H](C)C[C@]12C)[C@H]1CCC(=O)C=C1C[C@H]3C [CDB-4731, 17β-Hexyloxycarbonyloxy-7α,11β-dimethylestr-4-en-3-one]
[1]; [8]
  Androgenic activity Potency Ratio: 1.18-3.27
[1]; oral, daily for 7 days in 10% ethanol/sesame oil, CDB 110 (methyltestosterone) = 1.000 assigned, FIG. 5, ranges did not pass all significance tests, listed as 4731
  Androgenic activity Potency Ratio: 1.18-3.27^1,2
[1]; [9]
  Androgenic activity Potency Ratio: 32
[1]; subcutaneous injection, daily for 7 days, CBD-111 (testosterone) = 1.000 assigned, FIG. 6, footnote 2 values did not pass all significance tests, listed as 4731
  Androgenic activity Potency Ratio: 32.0^1,2

## CC1C[C@@]2(C)C(=CC[C@@H]2OC(=O)OC23CC4CC(CC(C4)C2)C3)[C@H]2[C@H]1[C@H]1CCC(=O)C=C1C[C@H]2C (stereo partly drawn) [CDB-4750A, 17β-Adamantyloxycarbonyloxy-7α,11-dimethylestra-4,14-dien-3-one]
[2]; [6]
  AUC of ventral prostate weight (duration of androgenic activity): 326 mg·week
[2]; [7]
  AUC of ventral prostate weight (duration of androgenic activity): 759 mg·week

## CCCCCCCCCCCCOC(=O)OC1CC[C@H]2[C@@H]3CCC4=CC(=O)CC[C@@H]4[C@H]3[C@@H](C)C[C@]12C (stereo partly drawn) [CDB-4754, 11β-Methyl-17-dodecyloxycarbonyloxy estr-4-en-3-one]
[2]; [6]
  AUC of ventral prostate weight (duration of androgenic activity): 564 mg·week
[2]; [7]
  AUC of ventral prostate weight (duration of androgenic activity): 974 mg·week

## CCCCCCCCCC(=O)OC1CCC2C3C(C)CC4=CC(=O)CCC4C3C(C)CC12C (stereo not drawn) [CDB-4756, dimethandrolone decanoate, reference compound]
[1]
  Biological activity Potency Ratio: 2.13-7.56

## CCCCCCCCCCOC(=O)O[C@H]1CC[C@H]2[C@@H]3CCC4=CC(=O)CC[C@@H]4[C@H]3[C@@H](C)C[C@]12C [CDB-4757, 11β-Methyl-17β-decyloxycarbonyloxyestr-4-en-3-one]
[1]
  Biological activity Potency Ratio: 1.96
